Test results from article PMC5011342, “A high throughput drug screening assay to identify compounds that promote oligodendrocyte differentiation using acutely dissociated and purified oligodendrocyte precursor cells” (BMC Research Notes, 2016).
Where a name gives a salt, the structure may show the parent alone. Read-outs that look alike come from different tables or passages of the source.

Tests used:
expanded OPCs = assay: cells; settings: for viability at 0.1 µM / viability at 1 µM / viability at 10 µM: Rattus norvegicus, 72 h
In short: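 Toxicity screen: compounds added at 0.1, 1 and 10 µM to PDGF-AA-expanded OPCs in 96-well plates, 3-day incubation at 37 °C, 10% CO2, then alamarBlue 1:10 for 4 h with fluorescence readout. Results set screening doses of 10/2, 2/0.4 or 0.4/0.08 µM.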

[1] = system: acutely dissociated and purified rat OPCs; assay: Acute OL differentiation assay (MBP expression/cell, immunofluorescent image quantification); assay type: cell-based; settings: for activation at 2 µM / activation at 10 µM / activation at 0.08 µM / activation at 0.4 µM: Rattus norvegicus; for activation at 0.08 µM: test compound at 0.08 uM, read-out: 0.08 uM (% Quet)
In short: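 This acute differentiation assay used purified rat OPCs from postnatal day 6–7 pups, seeded into PDL/laminin-coated 96-well plates in differentiation medium lacking PDGF and FGF. Compounds were applied in quadruplicate after a 1–2 h preincubation at 37 °C, 10 % CO2, with 0.1 % DMSO negative and 40 ng/ml T3 positive controls in eight wells. After fixation on DIV4, anti-MBP immunofluorescence images yielded MBP expression/cell.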

[2] = alamarBlue viability of expanded OPCs, compound at 0.1 µM, relative to DMSO control
[3] = alamarBlue viability of expanded OPCs, compound at 1 µM, relative to DMSO control
[4] = alamarBlue viability of expanded OPCs, compound at 10 µM, relative to DMSO control
[5] = test compound at 2 uM, MBP expression relative to quetiapine, NCC library screen, sheet "All OLga data", read-out: 2 uM (% Quet)
[6] = test compound at 10 uM, MBP expression relative to quetiapine, NCC library screen, sheet "All OLga data", read-out: 10 uM (% Quet)
[7] = test compound at 2 uM, NCC library screen, sheet "All OLga data", relative to quetiapine, read-out: 2 uM (% Quet)
[8] = test compound at 10 uM, NCC library screen, sheet "All OLga data", relative to quetiapine, read-out: 10 uM (% Quet)
[9] = read-out: 0.1 µM (% DMSO), alamarBlue viability of expanded OPCs, compound at 0.1 µM, sheet All Tox data
[10] = read-out: 1 µM (% DMSO), alamarBlue viability of expanded OPCs, compound at 1 µM, sheet All Tox data
[11] = read-out: 10 µM (% DMSO), alamarBlue viability of expanded OPCs, compound at 10 µM, sheet All Tox data
[12] = 2 uM test compound, relative to quetiapine, sheet "All OLga data", read-out: OL differentiation, 2 uM (% Quet)
[13] = 10 uM test compound, relative to quetiapine, sheet "All OLga data", read-out: OL differentiation, 10 uM (% Quet)
[14] = read-out: 0.1 µM (% DMSO), alamarBlue viability, NCC library compound at 0.1 µM, sheet "All Tox data"
[15] = read-out: 1 µM (% DMSO), alamarBlue viability, NCC library compound at 1 µM, sheet "All Tox data"
[16] = read-out: 10 µM (% DMSO), alamarBlue viability, NCC library compound at 10 µM, sheet "All Tox data"
[17] = NCC library screen, sheet "All OLga data", relative to quetiapine
[18] = test compound at 0.4 uM, NCC library screen, sheet "All OLga data", relative to quetiapine, read-out: 0.4 uM (% Quet)
[19] = alamarBlue viability, NCC library compound at 0.1 µM, sheet "All Tox data"
[20] = alamarBlue viability, NCC library compound at 1 µM, sheet "All Tox data"
[21] = alamarBlue viability, NCC library compound at 10 µM, sheet "All Tox data"
[22] = test compound at 2 uM, NCC library screen, sheet "All OLga data", relative to quetiapine
[23] = test compound at 10 uM, NCC library screen, sheet "All OLga data", relative to quetiapine
[24] = test compound at 0.4 uM, MBP expression relative to quetiapine, NCC library screen, sheet "All OLga data", read-out: 0.4 uM (% Quet)

NS(=O)(=O)c1cc(C2(O)NC(=O)c3ccccc32)ccc1Cl (centres unmarked) [Chlorthalidone]
0.1 µM (% DMSO) (expanded OPCs; [2]): 92.5 % DMSO
1 µM (% DMSO) (expanded OPCs; [3]): 95.8 % DMSO
10 µM (% DMSO) (expanded OPCs; [4]): 81.7 % DMSO
activation at 2 µM [1, 5]: -5.8%
activation at 10 µM [1, 6]: -2%

CC1(C)C[C@@H]1C(=O)N/C(=C\CCCCSC[C@H](N)C(=O)O)C(=O)O [Cilastatin]
viability at 0.1 µM (expanded OPCs; read-out: 0.1 µM (% DMSO)): 96.8%
viability at 1 µM (expanded OPCs; read-out: 1 µM (% DMSO)): 95.5%
viability at 10 µM (expanded OPCs; read-out: 10 µM (% DMSO)): 89.5%
activation at 2 µM ([1]; read-out: OL differentiation, 2 uM (% Quet)): -1.9%
activation at 10 µM ([1]; read-out: OL differentiation, 10 uM (% Quet)): -4.3%

CN/C(=N/CCSCc1nc[nH]c1C)NC#N [Cimetidine]
0.1 µM (% DMSO) (expanded OPCs; [2]): 89.7 % DMSO
1 µM (% DMSO) (expanded OPCs; [3]): 89.2 % DMSO
10 µM (% DMSO) (expanded OPCs; [4]): 92.3 % DMSO
activation at 2 µM [1, 7]: 2.9%
activation at 10 µM [1, 8]: -11.1%

CN(C)CCCSc1ccccc1NC(=O)/C=C/c1ccccc1 [Cinanserin]
viability at 0.1 µM (expanded OPCs; [9]): 80.3%
viability at 1 µM (expanded OPCs; [10]): 84.3%
viability at 10 µM (expanded OPCs; [11]): 74.7%
activation at 2 µM [1, 12]: 64.2%
activation at 10 µM [1, 13]: 63.5%

COc1cc(N)c(Cl)cc1C(=O)NC1CCN(CCCOc2ccc(F)cc2)CC1OC (centres unmarked) [Cisapride]
viability at 0.1 µM (expanded OPCs; [9]): 80.4%
viability at 1 µM (expanded OPCs; [10]): 89%
viability at 10 µM (expanded OPCs; [11]): 73.6%
activation at 2 µM [1, 12]: 11.3%
activation at 10 µM [1, 13]: 25.5%

Nc1nc(Cl)nc2c1ncn2[C@H]1C[C@H](O)[C@@H](CO)O1 [Cladribine]
viability at 0.1 µM (expanded OPCs; [14]): 41.2%
viability at 1 µM (expanded OPCs; [15]): 22.4%
viability at 10 µM (expanded OPCs; [16]): 10.4%
activation at 0.08 µM [1, 17]: -6.7%
activation at 0.4 µM [1, 18]: -22.9%

NC(=NCc1ccc(Cl)cc1)SCCCc1cnc[nH]1 [Clobenpropit]
viability at 0.1 µM (expanded OPCs; [14]): 120%
viability at 1 µM (expanded OPCs; [15]): 107%
viability at 10 µM (expanded OPCs; [16]): 39.3%
activation at 0.4 µM [1, 18]: 7.2%
activation at 2 µM [1, 7]: -2.7%

C[C@H]1C[C@H]2[C@@H]3CCC4=CC(=O)C=C[C@]4(C)[C@@]3(F)[C@@H](O)C[C@]2(C)[C@@]1(O)C(=O)CCl [Clobetasol]
0.1 µM (% DMSO) (expanded OPCs; [19]): 124.1 % DMSO
1 µM (% DMSO) (expanded OPCs; [20]): 133.0 % DMSO
10 µM (% DMSO) (expanded OPCs; [21]): 121.5 % DMSO
2 uM (% Quet) [1, 22]: -30.9 % Quet
10 uM (% Quet) [1, 23]: -99.6 % Quet

CC(C)/N=c1\cc2n(-c3ccc(Cl)cc3)c3ccccc3nc-2cc1Nc1ccc(Cl)cc1 [Clofazimine]
viability at 0.1 µM (expanded OPCs; [14]): 89.9%
viability at 1 µM (expanded OPCs; [15]): 45.9%
viability at 10 µM (expanded OPCs; [16]): 19%
activation at 0.08 µM [1, 17]: 0.25%
activation at 0.4 µM [1, 18]: -57.8%

CCN(CC)CCOc1ccc(C(=C(Cl)c2ccccc2)c2ccccc2)cc1 [Clomiphene]
0.1 µM (% DMSO) (expanded OPCs; [2]): 172.3 % DMSO
1 µM (% DMSO) (expanded OPCs; [3]): 59.8 % DMSO
10 µM (% DMSO) (expanded OPCs; [4]): 8.1 % DMSO
activation at 0.4 µM [1, 24]: 51.5%

CN(C)CCCN1c2ccccc2CCc2ccc(Cl)cc21 [Clomipramine]
0.1 µM (% DMSO) (expanded OPCs; [2]): 76.2 % DMSO
1 µM (% DMSO) (expanded OPCs; [3]): 37.7 % DMSO
10 µM (% DMSO) (expanded OPCs; [4]): 8.7 % DMSO
activation at 0.08 µM ([1]; MBP expression relative to quetiapine, NCC library screen, sheet "All OLga data"): 18.5%
activation at 0.4 µM [1, 24]: -59.9%

Clc1cccc(Cl)c1N=C1NCCN1 [Clonidine hydrochloride]
viability at 0.1 µM (expanded OPCs; [14]): 91.9%
viability at 1 µM (expanded OPCs; [15]): 84.3%
viability at 10 µM (expanded OPCs; [16]): 77.2%
activation at 2 µM [1, 12]: -12.5%
activation at 10 µM [1, 13]: -14.3%

COC(=O)[C@H](c1ccccc1Cl)N1CCc2sccc2C1 [Clopidogrel]
0.1 µM (% DMSO) (expanded OPCs; [2]): 103.8 % DMSO
1 µM (% DMSO) (expanded OPCs; [3]): 94.8 % DMSO
10 µM (% DMSO) (expanded OPCs; [4]): 75.7 % DMSO
activation at 0.4 µM [1, 24]: -4%
activation at 2 µM [1, 5]: -15%

Clc1ccccc1C(c1ccccc1)(c1ccccc1)n1ccnc1 [Clotrimazole]
viability at 0.1 µM (expanded OPCs; [9]): 82.3%
viability at 1 µM (expanded OPCs; [10]): 125%
viability at 10 µM (expanded OPCs; [11]): 54.9%
activation at 0.4 µM ([1]; 0.4 uM test compound, relative to quetiapine, sheet "All OLga data", read-out: OL differentiation, 0.4 uM (% Quet)): 43.9%
activation at 2 µM [1, 12]: 171%

CN1CCN(C2=Nc3cc(Cl)ccc3Nc3ccccc32)CC1 [Clozapine]
0.1 µM (% DMSO) (expanded OPCs; [2]): 78.7 % DMSO
1 µM (% DMSO) (expanded OPCs; [3]): 61.3 % DMSO
10 µM (% DMSO) (expanded OPCs; [4]): 24.6 % DMSO
activation at 0.4 µM [1, 24]: -5.6%
activation at 2 µM [1, 5]: -39.3%

C[C@]12C[C@H](O)[C@H]3[C@@H](CCC4=CC(=O)CC[C@@]43C)[C@@H]1CC[C@@H]2C(=O)CO [Corticosterone]
viability at 0.1 µM (expanded OPCs; [14]): 105%
viability at 1 µM (expanded OPCs; [15]): 108%
viability at 10 µM (expanded OPCs; [16]): 102%
activation at 2 µM [1, 7]: 20.1%
activation at 10 µM [1, 8]: 17.1%

C[C@]12CCC(=O)C=C1CC[C@@H]1[C@@H]2[C@@H](O)C[C@@]2(C)[C@H]1CC[C@]2(O)C(=O)COC(=O)CCC(=O)O [Cortisol succinate]
0.1 µM (% DMSO) (expanded OPCs; [19]): 123.4 % DMSO
1 µM (% DMSO) (expanded OPCs; [20]): 127.0 % DMSO
10 µM (% DMSO) (expanded OPCs; [21]): 132.7 % DMSO
2 uM (% Quet) [1, 22]: 3.6 % Quet
10 uM (% Quet) [1, 23]: 21.7 % Quet

CC(=O)OCC(=O)[C@@]1(O)CC[C@H]2[C@@H]3CCC4=CC(=O)CC[C@]4(C)[C@H]3C(=O)C[C@@]21C [Cortisone acetate]
0.1 µM (% DMSO) (expanded OPCs; [2]): 89.9 % DMSO
1 µM (% DMSO) (expanded OPCs; [3]): 98.1 % DMSO
10 µM (% DMSO) (expanded OPCs; [4]): 86.2 % DMSO
activation at 2 µM [1, 5]: 8.6%
activation at 10 µM [1, 6]: 4.1%

C[C@]12CCC(=O)C=C1CC[C@@H]1[C@@H]2CC[C@@]2(C)[C@H]1CC[C@]2(O)C(=O)CO [Cortodoxone]
viability at 0.1 µM (expanded OPCs; [14]): 92.3%
viability at 1 µM (expanded OPCs; [15]): 99.6%
viability at 10 µM (expanded OPCs; [16]): 96.1%
activation at 2 µM [1, 7]: 2.2%
activation at 10 µM [1, 8]: 5.5%

CN1C(=O)CC[C@H]1c1cccnc1 [Cotinine]
viability at 0.1 µM (expanded OPCs; [9]): 88.9%
viability at 1 µM (expanded OPCs; [10]): 92%
viability at 10 µM (expanded OPCs; [11]): 98.7%
activation at 2 µM [1, 12]: -8.8%
activation at 10 µM [1, 13]: 21.8%

O=C(O)c1cc(=O)c2c(OCC(O)COc3cccc4oc(C(=O)O)cc(=O)c34)cccc2o1 [Cromolyn Sodium]
0.1 µM (% DMSO) (expanded OPCs; [2]): 93.1 % DMSO
1 µM (% DMSO) (expanded OPCs; [3]): 94.0 % DMSO
10 µM (% DMSO) (expanded OPCs; [4]): 85.3 % DMSO
activation at 2 µM [1, 5]: -3%
activation at 10 µM [1, 6]: 3.7%
